What was measured:
Assay in all cases: Test C pre/postemergence
Format in all cases: in vivo
[1] = system: pigweed (Amaranthus retroflexus); conditions: for Pigweed plant response rating: scale 0 to 100 (0 no effect, 100 complete control)
Outline: (§1)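 Applications: preemergence onto seeded soil and postemergence onto 1- to 4-leaf seedlings, compound carried in non-phytotoxic solvent plus surfactant. Kept in greenhouse 12 to 14 days. Scored visually relative to untreated controls, 0 (no effect) to 100 (complete control).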

[2] = system: crabgrass (Digitaria sanguinalis); conditions: for Crabgrass plant response rating: scale 0 to 100 (0 no effect, 100 complete control)
Outline: as §1

[3] = system: goosegrass (Eleusine indica); conditions: for Goosegrass plant response rating: scale 0 to 100 (0 no effect, 100 complete control)
Outline: as §1

[4] = system: corn (Zea mays); conditions: for Corn plant response rating: scale 0 to 100 (0 no effect, 100 complete control)
Outline: as §1

[5] = system: common (oilseed) sunflower (Helianthus annuus); conditions: Preemergence
Outline: as §1

[6] = system: cocklebur (Xanthium strumarium); conditions: for Cocklebur plant response rating: scale 0 to 100 (0 no effect, 100 complete control)
Outline: as §1

[7] = system: velvetleaf (Abutilon theophrasti); conditions: for Velvetleaf plant response rating: scale 0 to 100 (0 no effect, 100 complete control)
Outline: as §1

[8] = system: Surinam grass (Brachiaria decumbens); conditions: for Surinam Grass plant response rating: scale 0 to 100 (0 no effect, 100 complete control)
Outline: as §1

[9] = system: lambsquarters (Chenopodium album); conditions: for Lambsquarters plant response rating: scale 0 to 100 (0 no effect, 100 complete control)
Outline: as §1

[10] = system: kochia (Kochia scoparia); conditions: for Kochia plant response rating: scale 0 to 100 (0 no effect, 100 complete control)
Outline: as §1

[11] = system: yellow nutsedge (Cyperus esculentus); conditions: for Nutsedge, Yellow plant response rating: scale 0 to 100 (0 no effect, 100 complete control)
Outline: as §1

[12] = system: common ragweed (Ambrosia elatior); conditions: for Ragweed plant response rating: scale 0 to 100 (0 no effect, 100 complete control)
Outline: as §1

[13] = Postemergence, 250 g ai/ha, scale 0 to 100
[14] = Preemergence, 31 g ai/ha, scale 0 to 100, 0 no effect, 100 complete control
[15] = Preemergence, 62 g ai/ha, scale 0 to 100, 0 no effect, 100 complete control
[16] = Preemergence, 125 g ai/ha, scale 0 to 100
[17] = Preemergence, 250 g ai/ha, scale 0 to 100

CCCCOC(=O)c1nc(C2CC2)nc(N)c1Br [Compound 16]
Plant response rating (scale of 0 to 100), Pigweed ([1]; Postemergence, 31 g ai/ha): 85 | Pigweed plant response rating ([1]; Postemergence, 62 g ai/ha): 90 | Pigweed plant response rating ([1]; Postemergence, 125 g ai/ha): 95 | Plant response rating, Pigweed [1, 13]: 95 | Plant response rating, Pigweed [1, 14]: 85 | Plant response rating, Pigweed [1, 15]: 95 | Plant response rating, Pigweed [1, 16]: 100 | Plant response rating, Pigweed [1, 17]: 100 | Plant response rating (scale of 0 to 100), Crabgrass ([2]; Postemergence, 31 g ai/ha): 0 | Crabgrass plant response rating ([2]; Postemergence, 62 g ai/ha): 15 | Crabgrass plant response rating ([2]; Postemergence, 125 g ai/ha): 45 | Plant response rating, Crabgrass [2, 13]: 75 | Plant response rating, Crabgrass [2, 14]: 0 | Plant response rating, Crabgrass [2, 15]: 0 | Plant response rating, Crabgrass [2, 16]: 65 | Plant response rating, Crabgrass [2, 17]: 95 | Plant response rating (scale of 0 to 100), Goosegrass ([3]; Postemergence, 31 g ai/ha): 0 | Goosegrass plant response rating ([3]; Postemergence, 62 g ai/ha): 0 | Goosegrass plant response rating ([3]; Postemergence, 125 g ai/ha): 0 | Plant response rating, Goosegrass [3, 13]: 20 | Plant response rating, Goosegrass [3, 14]: 0 | Plant response rating, Goosegrass [3, 15]: 0 | Plant response rating, Goosegrass [3, 16]: 0 | Plant response rating, Goosegrass [3, 17]: 0 | Plant response rating (scale of 0 to 100), Corn ([4]; Postemergence, 31 g ai/ha): 0 | Corn plant response rating ([4]; Postemergence, 62 g ai/ha): 0 | Corn plant response rating ([4]; Postemergence, 125 g ai/ha): 20 | Plant response rating, Corn [4, 13]: 55 | Plant response rating, Corn [4, 14]: 0 | Plant response rating, Corn [4, 15]: 15 | Plant response rating, Corn [4, 16]: 20 | Plant response rating, Corn [4, 17]: 75 | Plant response rating, Sunflower ([5]; 31 g ai/ha, scale 0 to 100, 0 no effect, 100 complete control): 20 | Plant response rating, Sunflower ([5]; 62 g ai/ha, scale 0 to 100, 0 no effect, 100 complete control): 85 | Plant response rating, Sunflower ([5]; 125 g ai/ha, scale 0 to 100): 100 | Plant response rating, Sunflower ([5]; 250 g ai/ha, scale 0 to 100): 100 | Plant response rating (scale of 0 to 100), Cocklebur ([6]; Postemergence, 31 g ai/ha): 75 | Cocklebur plant response rating ([6]; Postemergence, 62 g ai/ha): 95 | Cocklebur plant response rating ([6]; Postemergence, 125 g ai/ha): 100 | Plant response rating, Cocklebur [6, 13]: 100 | Plant response rating, Cocklebur [6, 14]: 45 | Plant response rating, Cocklebur [6, 15]: 95 | Plant response rating, Cocklebur [6, 16]: 95 | Plant response rating, Cocklebur [6, 17]: 100 | Plant response rating (scale of 0 to 100), Velvetleaf ([7]; Postemergence, 31 g ai/ha): 55 | Velvetleaf plant response rating ([7]; Postemergence, 62 g ai/ha): 60 | Velvetleaf plant response rating ([7]; Postemergence, 125 g ai/ha): 65 | Plant response rating, Velvetleaf [7, 13]: 90 | Plant response rating, Velvetleaf [7, 14]: 25 | Plant response rating, Velvetleaf [7, 15]: 90 | Plant response rating, Velvetleaf [7, 16]: 95 | Plant response rating, Velvetleaf [7, 17]: 100 | Plant response rating (scale of 0 to 100), Surinam Grass ([8]; Postemergence, 31 g ai/ha): 0 | Surinam Grass plant response rating ([8]; Postemergence, 62 g ai/ha): 0 | Surinam Grass plant response rating ([8]; Postemergence, 125 g ai/ha): 25 | Plant response rating, Surinam Grass [8, 13]: 55 | Plant response rating, Surinam Grass [8, 14]: 0 | Plant response rating, Surinam Grass [8, 15]: 0 | Plant response rating, Surinam Grass [8, 16]: 15 | Plant response rating, Surinam Grass [8, 17]: 80 | Plant response rating (scale of 0 to 100), Lambsquarters ([9]; Postemergence, 31 g ai/ha): 95 | Lambsquarters plant response rating ([9]; Postemergence, 62 g ai/ha): 100 | Lambsquarters plant response rating ([9]; Postemergence, 125 g ai/ha): 100 | Plant response rating, Lambsquarters [9, 13]: 100 | Plant response rating, Lambsquarters [9, 14]: 95 | Plant response rating, Lambsquarters [9, 15]: 95 | Plant response rating, Lambsquarters [9, 16]: 100 | Plant response rating, Lambsquarters [9, 17]: 100 | Plant response rating (scale of 0 to 100), Kochia ([10]; Postemergence, 31 g ai/ha): 95 | Kochia plant response rating ([10]; Postemergence, 62 g ai/ha): 100 | Kochia plant response rating ([10]; Postemergence, 125 g ai/ha): 100 | Plant response rating, Kochia [10, 13]: 100 | Plant response rating, Kochia [10, 14]: 90 | Plant response rating, Kochia [10, 15]: 95 | Plant response rating, Kochia [10, 16]: 100 | Plant response rating, Kochia [10, 17]: 100 | Plant response rating (scale of 0 to 100), Nutsedge, Yellow ([11]; Postemergence, 31 g ai/ha): 0 | Nutsedge, Yellow plant response rating ([11]; Postemergence, 62 g ai/ha): 0 | Nutsedge, Yellow plant response rating ([11]; Postemergence, 125 g ai/ha): 0 | Plant response rating, Nutsedge, Yellow [11, 13]: 0 | Plant response rating, Nutsedge, Yellow [11, 14]: 0 | Plant response rating, Nutsedge, Yellow [11, 15]: 0 | Plant response rating, Nutsedge, Yellow [11, 16]: 0 | Plant response rating, Nutsedge, Yellow [11, 17]: 0 | Plant response rating (scale of 0 to 100), Ragweed ([12]; Postemergence, 31 g ai/ha): 60 | Ragweed plant response rating ([12]; Postemergence, 62 g ai/ha): 85 | Ragweed plant response rating ([12]; Postemergence, 125 g ai/ha): 95 | Plant response rating, Ragweed [12, 13]: 95 | Plant response rating, Ragweed [12, 14]: 45 | Plant response rating, Ragweed [12, 15]: 90 | Plant response rating, Ragweed [12, 16]: 95 | Plant response rating, Ragweed [12, 17]: 100

Source: patent US8802597B2, “Herbicidal pyrimidines” (E I du Pont de Nemours and Company, priority 2003, dated 2014)
